Laboratory results reported in ChEMBL document CHEMBL1201862, “PubChem BioAssay data set” (2004).
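Test compounds were applied to cells in 96-well plates for 48 hours at 5 doses. GI50 = concentration required for 50% inhibition of growth.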 Calls of active or inactive are those of the source. No stated cut-off is given here; in the data, active = GI50 up to about 1.1 µM and inactive = higher.

Assays:
Assay in all cases: NCI anticancer screen, dose series, 48 h
[1] = system: BT-549
[2] = system: OVCAR-4
[3] = system: T47D
[4] = system: SF-295
[5] = system: SN12C
[6] = system: KM12
[7] = system: MOLT-4
[8] = system: SK-MEL-28
[9] = system: MDA-N
[10] = system: 786-0
[11] = system: HCT-15
[12] = system: IGROV-1
[13] = system: NCI-H226
[14] = system: UACC-257
[15] = system: ACHN
[16] = system: MCF7
[17] = system: K562
[18] = system: HL-60
[19] = system: Hs-578T

Row | SMILES | GI50 [1] | GI50 [2] | GI50 [3] | GI50 [4] | GI50 [5] | GI50 [6] | GI50 [7] | GI50 [8] | GI50 [9] | GI50 [10] | GI50 [11] [µM] | GI50 [12] | GI50 [13] | GI50 [14] | GI50 [15] | GI50 [16] | GI50 [17] | GI50 [18] | GI50 [19]
1 | Cc1cnc(Cl)nc1C(C#N)c1nc2ccccc2n1C (stereo not given) | > 100 µM (inactive) | 49.1 µM (inactive) | 84.9 µM (inactive) | > 100 µM (inactive) | > 100 µM (inactive) | > 100 µM (inactive) | > 100 µM (inactive) | 93.1 µM (inactive) | > 100 µM (inactive) | 44.4 µM (inactive) | > 100 | 33.4 µM (inactive) | > 100 µM (inactive) | > 100 µM (inactive) | 66.8 µM (inactive) |  |  |  | 
2 | Cc1nc2cccc(F)c2c(=O)n1-c1nnc(C2CC2)s1 |  | > 10 µM (inactive) | > 10 µM (inactive) | > 10 µM (inactive) | > 10 µM (inactive) | > 10 µM (inactive) | > 10 µM (inactive) | > 10 µM (inactive) | > 10 µM (inactive) | > 10 µM (inactive) | > 10 | > 10 µM (inactive) | > 10 µM (inactive) | > 10 µM (inactive) | > 10 µM (inactive) | > 10 µM (inactive) | > 10 µM (inactive) | > 10 µM (inactive) | > 10 µM (inactive)
3 | C[N+](C)(C)CCOP(=O)([O-])OCCNC(=O)c1ccc2ccccc2c1 | 2.05 µM (inactive) |  | > 100 µM (inactive) | > 100 µM (inactive) | > 100 µM (inactive) | > 100 µM (inactive) | > 100 µM (inactive) | > 100 µM (inactive) | > 100 µM (inactive) | > 100 µM (inactive) | > 100 | > 100 µM (inactive) | > 100 µM (inactive) | > 100 µM (inactive) | > 100 µM (inactive) | > 100 µM (inactive) | > 100 µM (inactive) | > 100 µM (inactive) | 
4 | CN1C(=O)C2(Cc3cn(C45CC67SSC(CO)(C(=O)N6C4Nc4ccccc45)N(C)C7=O)c4ccccc34)SSC1(CO)C(=O)N2C (stereo not given) |  | < 0.01 µM (active) | < 0.01 µM (active) | 0.309 µM (active) | 0.0147 µM (active) | 0.139 µM (active) | 0.0405 µM (active) | 0.084 µM (active) | 0.0198 µM (active) | < 0.01 µM (active) | < 0.01 | 0.0165 µM (active) |  | 0.0188 µM (active) | < 0.01 µM (active) | < 0.01 µM (active) | < 0.01 µM (active) | 0.013 µM (active) | 0.0282 µM (active)
5 | Nn1c(CCCCCCCCc2nnc(COc3ccc4ccccc4c3O)n2N)nnc1COc1ccc2ccccc2c1O | 22.1 µM (inactive) | 34.1 µM (inactive) |  | 28.6 µM (inactive) | 39.3 µM (inactive) | 18.7 µM (inactive) | 14.9 µM (inactive) | 32.4 µM (inactive) |  | 33.9 µM (inactive) | 22.3 | 4.92 µM (inactive) | 17.9 µM (inactive) | 39.9 µM (inactive) | 31.3 µM (inactive) | 27.2 µM (inactive) | 41.7 µM (inactive) |  | 
6 | OCC1OC(Oc2cc(O)cc(/C=C\c3ccc(O)cc3)c2)C(O)C(O)C1O (stereo not given) | > 100 µM (inactive) | > 100 µM (inactive) |  | > 100 µM (inactive) | > 100 µM (inactive) | > 100 µM (inactive) | > 100 µM (inactive) | > 100 µM (inactive) | > 100 µM (inactive) | > 100 µM (inactive) | > 100 | > 100 µM (inactive) | > 100 µM (inactive) | > 100 µM (inactive) | > 100 µM (inactive) | > 100 µM (inactive) | > 100 µM (inactive) | > 100 µM (inactive) | > 100 µM (inactive)
7 | CC(=O)OCC1OC(n2c3c(c(-c4cccc5ccccc45)c(C#N)c2=S)CCCC3)C(OC(C)=O)C(OC(C)=O)C1OC(C)=O (stereo not given) |  | > 100 µM (inactive) | > 100 µM (inactive) | > 100 µM (inactive) | > 100 µM (inactive) | > 100 µM (inactive) | > 100 µM (inactive) | > 100 µM (inactive) | > 100 µM (inactive) | > 100 µM (inactive) | > 100 | > 100 µM (inactive) | > 100 µM (inactive) | > 100 µM (inactive) | > 100 µM (inactive) | > 100 µM (inactive) | > 100 µM (inactive) | > 100 µM (inactive) | 
8 | CC(=O)c1nc2ccccc2n1C(C)C(=O)c1ccccc1 (stereo not given) | 52 µM (inactive) | 47.4 µM (inactive) |  | 54.6 µM (inactive) | 56.6 µM (inactive) | 58.3 µM (inactive) | 34.9 µM (inactive) | > 100 µM (inactive) | 54.1 µM (inactive) | 36.9 µM (inactive) | 81.5 | 30.2 µM (inactive) | > 100 µM (inactive) | 54.6 µM (inactive) |  | 22.2 µM (inactive) | 36.5 µM (inactive) | 29.6 µM (inactive) | 81.1 µM (inactive)
9 | CCOc1c(OC)cc(C2c3cc4c(c(OCC)c3CC3COC(=O)C32)OCO4)cc1OC (stereo not given) | 2.7 µM (inactive) | 8.28 µM (inactive) | 23 µM (inactive) | 1 µM (active) | 2.21 µM (inactive) | 0.962 µM (active) | 2.65 µM (inactive) | 16.6 µM (inactive) |  | 2.62 µM (inactive) | 0.608 | 2.41 µM (inactive) | 6.84 µM (inactive) | 0.912 µM (active) | 1.79 µM (inactive) | 0.574 µM (active) | 1.83 µM (inactive) |  | 1.99 µM (inactive)
10 | COc1ccc(-c2coc3cc(OC)cc(O)c3c2=O)cc1 [4',7-DIMETHOXY-5-HYDROXYGENISTEIN] |  | > 100 µM (inactive) | > 100 µM (inactive) | > 100 µM (inactive) | > 100 µM (inactive) | > 100 µM (inactive) |  | > 100 µM (inactive) | > 100 µM (inactive) | 25.8 µM (inactive) | > 100 | > 100 µM (inactive) | > 100 µM (inactive) | > 100 µM (inactive) | 34.4 µM (inactive) | > 100 µM (inactive) | > 100 µM (inactive) | > 100 µM (inactive) | 31.1 µM (inactive)
11 | CCCCCCCCCCCCSC(=S)c1c(C)[nH]n(-c2ccccc2)c1=O |  | 8.36 µM (inactive) |  | 12.5 µM (inactive) | 8.28 µM (inactive) |  | 6.61 µM (inactive) | 7.36 µM (inactive) |  | 15.6 µM (inactive) | 1.93 | 14.6 µM (inactive) | 14.9 µM (inactive) | 8.04 µM (inactive) | 16.9 µM (inactive) |  | 6.61 µM (inactive) | 8.59 µM (inactive) | 
12 | CC(Oc1ccc2c(-c3ccc(Cl)cc3)cc(=O)oc2c1)C(=O)O (stereo not given) |  | > 100 µM (inactive) |  | > 100 µM (inactive) | > 100 µM (inactive) | > 100 µM (inactive) | > 100 µM (inactive) | > 100 µM (inactive) |  | > 100 µM (inactive) |  | > 100 µM (inactive) | > 100 µM (inactive) | > 100 µM (inactive) | > 100 µM (inactive) |  | > 100 µM (inactive) | > 100 µM (inactive) | 
13 | COc1ccc(Cn2nc(OCc3ccccc3)c3cc([N+](=O)[O-])ccc32)cc1 |  |  | > 100 µM (inactive) | > 100 µM (inactive) | > 100 µM (inactive) | > 100 µM (inactive) | > 100 µM (inactive) | > 100 µM (inactive) | > 100 µM (inactive) | > 100 µM (inactive) | > 100 | > 100 µM (inactive) | > 100 µM (inactive) | > 100 µM (inactive) | > 100 µM (inactive) | > 100 µM (inactive) | > 100 µM (inactive) | > 100 µM (inactive) | > 100 µM (inactive)
14 | COc1cc(C2c3cc4c(cc3[C@@H](Nc3ccccc3)C3COC[C@H]23)OCO4)cc(OC)c1O (stereo not given in full) |  | 16.9 µM (inactive) | 1.19 µM (inactive) | 0.485 µM (active) | 1.9 µM (inactive) | 2.84 µM (inactive) | 0.0665 µM (active) | 5.77 µM (inactive) | 7.35 µM (inactive) | 1.1 µM (active) | 1.12 | 8.34 µM (inactive) |  | 14.6 µM (inactive) | 0.483 µM (active) | 0.512 µM (active) | 1.8 µM (inactive) | 0.573 µM (active) | 0.736 µM (active)
15 | O=[N+]([O-])c1ccc(/C=C/c2cc(-c3ccccc3)nc3ccc4ccccc4c23)cc1 |  | > 100 µM (inactive) |  | > 100 µM (inactive) | > 100 µM (inactive) | > 100 µM (inactive) | > 100 µM (inactive) | > 100 µM (inactive) | > 100 µM (inactive) | > 100 µM (inactive) | > 100 | > 100 µM (inactive) | > 100 µM (inactive) | > 100 µM (inactive) | > 100 µM (inactive) | 57 µM (inactive) | > 100 µM (inactive) | > 100 µM (inactive) | > 100 µM (inactive)
16 | O=C1CCN/C(=N\C(=O)C(F)(F)F)N1CCc1c[nH]c2ccccc12 |  | > 100 µM (inactive) | > 100 µM (inactive) | > 100 µM (inactive) | > 100 µM (inactive) | > 100 µM (inactive) | > 100 µM (inactive) | > 100 µM (inactive) | > 100 µM (inactive) | > 100 µM (inactive) | > 100 | > 100 µM (inactive) | > 100 µM (inactive) | > 100 µM (inactive) | > 100 µM (inactive) | > 100 µM (inactive) | > 100 µM (inactive) | > 100 µM (inactive) | > 100 µM (inactive)
17 | COC(=O)[C@@H]1C=C[C@@H](C#N)n2c(=O)n(-c3ccccc3)c(=O)n21 | 34 µM (inactive) | 36.3 µM (inactive) | 24.2 µM (inactive) | 23.8 µM (inactive) | 26.2 µM (inactive) | 28.8 µM (inactive) | 34.7 µM (inactive) | 17 µM (inactive) |  | 25.2 µM (inactive) | 30.1 | 32.6 µM (inactive) | 15.6 µM (inactive) | 39.4 µM (inactive) | 38.5 µM (inactive) | 19.5 µM (inactive) | 37.9 µM (inactive) |  | 23.7 µM (inactive)
